Experimental data as given in patent US8148391B2 (Cephalon, Inc., priority 2006, dated 2012).
Where two headings read alike, the source gives them in different places.

What was measured:
[1] = molecular target: T1, c-Met (cytoplasmic domain) (Homo sapiens, UniProt P08581); assay: c-Met Kinase Assay (same methods as for ALK, with modifications); format: biochemical
T1 construct: 10 ng/mL c-Met (cytoplasmic domain, Invitrogen Corporation #PV3143); purchased Invitrogen Corporation PV3143
Procedure, shortened: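 IC50 values were fitted by variable-slope sigmoidal regression of percent inhibition against log compound concentration. Phosphorylation was read with Eu-N1 PT66 antibody after a 15 min, 37 °C reaction. The reaction was initiated with 10 ng/mL c-Met cytoplasmic domain on wells coated with 10 μg/mL PLC-γ in TBS.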

[2] = molecular target: T2, baculovirus-expressed ALK (Homo sapiens, UniProt Q9UM73); assay: ALK Kinase Assay (ELISA-type, time-resolved fluorescence); format: biochemical
T2 construct: host or cells: baculovirus expression system
T2 sequence (Q9UM73 19-1620): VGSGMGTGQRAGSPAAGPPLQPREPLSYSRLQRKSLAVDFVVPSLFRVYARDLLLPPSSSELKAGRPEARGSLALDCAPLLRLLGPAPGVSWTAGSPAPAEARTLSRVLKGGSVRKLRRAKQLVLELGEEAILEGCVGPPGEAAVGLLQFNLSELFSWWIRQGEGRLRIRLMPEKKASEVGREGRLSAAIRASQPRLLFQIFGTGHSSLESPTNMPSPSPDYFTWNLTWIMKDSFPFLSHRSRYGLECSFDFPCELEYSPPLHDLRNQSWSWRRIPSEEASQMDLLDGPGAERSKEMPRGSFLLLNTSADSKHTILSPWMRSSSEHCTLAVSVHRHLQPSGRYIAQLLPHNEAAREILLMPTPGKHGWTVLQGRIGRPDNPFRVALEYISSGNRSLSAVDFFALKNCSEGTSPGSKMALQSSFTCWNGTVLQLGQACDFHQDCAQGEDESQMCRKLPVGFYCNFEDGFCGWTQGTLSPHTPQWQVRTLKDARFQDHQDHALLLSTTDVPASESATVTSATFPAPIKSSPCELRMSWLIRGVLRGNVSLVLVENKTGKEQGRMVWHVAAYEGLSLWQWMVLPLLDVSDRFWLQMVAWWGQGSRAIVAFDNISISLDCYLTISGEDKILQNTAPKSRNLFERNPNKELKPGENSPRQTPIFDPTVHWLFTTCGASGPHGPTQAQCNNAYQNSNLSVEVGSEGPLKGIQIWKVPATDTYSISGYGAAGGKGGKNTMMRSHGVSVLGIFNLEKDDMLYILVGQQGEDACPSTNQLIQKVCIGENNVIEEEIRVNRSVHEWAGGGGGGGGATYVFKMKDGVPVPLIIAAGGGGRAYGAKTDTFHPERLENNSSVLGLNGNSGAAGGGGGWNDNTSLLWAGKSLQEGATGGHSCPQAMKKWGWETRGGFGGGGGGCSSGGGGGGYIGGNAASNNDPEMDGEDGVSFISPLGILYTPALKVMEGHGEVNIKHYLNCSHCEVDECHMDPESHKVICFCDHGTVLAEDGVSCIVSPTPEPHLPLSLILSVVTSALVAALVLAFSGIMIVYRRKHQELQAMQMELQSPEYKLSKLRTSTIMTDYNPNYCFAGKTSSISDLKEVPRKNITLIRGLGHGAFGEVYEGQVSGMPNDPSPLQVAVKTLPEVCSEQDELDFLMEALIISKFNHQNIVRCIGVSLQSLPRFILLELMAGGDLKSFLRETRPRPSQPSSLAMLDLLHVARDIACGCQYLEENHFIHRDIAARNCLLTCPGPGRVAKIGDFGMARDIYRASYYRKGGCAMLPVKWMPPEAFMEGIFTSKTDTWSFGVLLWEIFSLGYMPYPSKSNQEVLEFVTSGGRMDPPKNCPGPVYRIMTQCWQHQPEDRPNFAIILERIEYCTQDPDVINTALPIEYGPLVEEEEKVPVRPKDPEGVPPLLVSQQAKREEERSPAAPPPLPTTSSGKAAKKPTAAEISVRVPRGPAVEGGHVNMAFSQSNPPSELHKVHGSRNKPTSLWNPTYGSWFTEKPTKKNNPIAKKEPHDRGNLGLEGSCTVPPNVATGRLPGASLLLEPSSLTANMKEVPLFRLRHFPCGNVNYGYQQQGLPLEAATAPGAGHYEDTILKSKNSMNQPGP
Procedure, shortened: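 Wells were coated with phospholipase C-γ at 10 μg/mL in Tris-buffered saline. Adding 30 ng/ml enzyme started the reaction, which ran at 37° C for 15 minutes before Eu-N1 PT66 antibody detection. Percent inhibition versus log10 concentration gave IC50 by variable-slope fit.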

[3] = 1 μM ATP (Km level), 10 ng/mL c-Met, read-out: cMet Activity (c-Met kinase inhibition, IC50 class)
[4] = 1 μM ATP (Km level), 30 ng/ml ALK, 37° C., 15 minutes, read-out: ALK Activity (ALK kinase inhibition, IC50 class)
[5] = c-Met kinase inhibition, 1 μM ATP (Km level), read-out: cMet Activity
[6] = ALK kinase inhibition, 1 μM ATP (Km level), read-out: ALK Activity
[7] = c-Met kinase inhibition, 1 μM ATP, read-out: cMet Activity
[8] = ALK kinase inhibition, 1 μM ATP, read-out: ALK Activity
[9] = 1 μM ATP (Km level), read-out: cMet Activity (c-Met Kinase Inhibition, IC50)
[10] = 1 μM ATP (Km level), read-out: ALK Activity (ALK Kinase Inhibition, IC50)

T1 sequence (P08581 956-1390 limits assumed): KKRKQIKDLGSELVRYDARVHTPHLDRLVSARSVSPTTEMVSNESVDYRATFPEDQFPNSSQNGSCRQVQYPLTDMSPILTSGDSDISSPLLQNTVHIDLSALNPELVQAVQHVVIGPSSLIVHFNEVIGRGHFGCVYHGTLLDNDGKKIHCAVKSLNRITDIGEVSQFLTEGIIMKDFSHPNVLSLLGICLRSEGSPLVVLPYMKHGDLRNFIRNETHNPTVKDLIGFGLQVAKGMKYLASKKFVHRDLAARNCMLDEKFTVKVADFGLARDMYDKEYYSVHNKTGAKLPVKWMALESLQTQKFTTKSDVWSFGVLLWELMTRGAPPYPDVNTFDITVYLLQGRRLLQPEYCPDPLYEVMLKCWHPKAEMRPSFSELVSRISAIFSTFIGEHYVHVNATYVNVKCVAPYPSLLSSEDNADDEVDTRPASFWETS

Row | Compound | IC50 [1, 5] [nM] | IC50 [2, 6] [nM] | IC50 [1, 9] [nM] | IC50 [2, 10] [nM] | further results
1 | CNC(=O)c1cc(Br)cc(F)c1Nc1nc(Nc2ccc3c(c2)CCN(CCOC)CC3)ncc1Cl [Example 1415, 5-Bromo-2-{5-chloro-2-[3-(2-methoxy-ethyl)-2,3,4,5-tetrahydro-1H-benzo[d]azepin-7-ylamino]-pyrimidin-4-ylamino}-3-fluoro-N-methyl-benzamide] |  |  |  |  | IC50 [1, 3]: < 100 nM; IC50 [2, 4]: < 100 nM
2 | CS(=O)(=O)N[C@@H]1CCCC[C@H]1Nc1nc(Nc2ccc3c(c2)CCN(C[C@H](O)C(F)(F)F)CC3)ncc1Cl [Example 329, N-((1R,2R)-2-{5-Chloro-2-[3-((S)-3,3,3-trifluoro-2-hydroxy-propyl)-2,3,4,5-tetrahydro-1H-benzo[d]azepin-7-ylamino]-pyrimidin-4-ylamino}-cyclohexyl)-methanesulfonamide] | 1000 to 10000 | < 100 |  |  | 
3 | COCCN1C(=O)CCC(C)(C)c2ccc(Nc3ncc(Cl)c(Nc4ccccc4OCC#N)n3)cc21 [Example 1582, (2-{5-Chloro-2-[1-(2-methoxy-ethyl)-5,5-dimethyl-2-oxo-2,3,4,5-tetrahydro-1H-benzo[b]azepin-8-ylamino]-pyrimidin-4-ylamino}-phenoxy)-acetonitrile] |  |  |  |  | IC50 [1, 7]: 100 to 1000 nM; IC50 [2, 8]: < 100 nM
4 | C#CCN1CC2CCC(C1)c1cc(Nc3ncc(Cl)c(Nc4ccccc4C(=O)NC)n3)ccc12 (stereo not shown) [Example 279, 2-[5-Chloro-2-(10-prop-2-ynyl-10-aza-tricyclo[6.3.2.0*2,7*]trideca-2,4,6-trien-4-ylamino)-pyrimidin-4-ylamino]-N-methyl-benzamide] | < 100 | < 100 |  |  | 
5 | COc1c(Nc2ncc(Cl)c(N[C@@H]3CCCC[C@H]3NS(C)(=O)=O)n2)ccc2c1CCC(NCCO)CC2 (single isomer, unassigned) [Example 698] |  |  | > 10000 | < 100 | 
6 | CC(C)[C@H](Nc1nc(Nc2ccc3c(c2)CCOC(=O)N3C)ncc1Cl)C(N)=O [Example 1764, (S)-2-[5-chloro-2-(5-methyl-6-oxo-5,6,8,9-tetrahydro-7-oxa-5-aza-benzocyclohepten-2-ylamino)-pyrimidin-4-ylamino]-3-methyl-butyramide] |  |  |  |  | IC50 [1, 7]: > 10000 nM; IC50 [2, 8]: 1000 to 10000 nM
7 | CNC(=O)C1C2C=CC(C2)C1Nc1nc(Nc2cc3c(cc2OC)CCN(CCOC)CC3)ncc1Cl (stereo not drawn) [Example 604, (2-exo-3-exo)-3-{5-Chloro-2-[8-methoxy-3-(2-methoxy-ethyl)-2,3,4,5-tetrahydro-1H-benzo[d]azepin-7-ylamino]-pyrimidin-4-ylamino}-bicyclo[2.2.1]hept-5-ene-2-carboxylic acid methylamide] |  |  | > 10000 | < 100 | 
8 | CNC(=O)c1cccc(F)c1Nc1nc(Nc2ccc3c(c2)NC(=O)CN(C(C)=O)C3)ncc1Cl [Example 1848, 2-[2-(4-Acetyl-2-oxo-2,3,4,5-tetrahydro-1H-benzo[e][1,4]diazepin-8-ylamino)-5-chloro-pyrimidin-4-ylamino]-3-fluoro-N-methyl-benzamide] |  |  |  |  | IC50 [1, 7]: 100 to 1000 nM; IC50 [2, 8]: 100 to 1000 nM
9 | COc1cc2c(cc1Nc1ncc(C(F)(F)F)c(Nc3ccc(N4CCOCC4)cc3OC)n1)N(C)C(=O)OCC2 [Example 1518, 2-Methoxy-3-[4-(2-methoxy-4-morpholin-4-yl-phenylamino)-5-trifluoromethyl-pyrimidin-2-ylamino]-5-methyl-8,9-dihydro-5H-7-oxa-5-aza-benzocyclohepten-6-one] |  |  |  |  | IC50 [1, 7]: 1000 to 10000 nM; IC50 [2, 8]: 100 to 1000 nM
10 | CNC(=O)c1cccc(F)c1Nc1nc(Nc2ccc3c(c2)C2CCC(C3)N2CCOC)ncc1Cl (stereo not shown) [Example 456, 2-{5-Chloro-2-[12-(2-methoxy-ethyl)-12-aza-tricyclo[7.2.1.0(2,7)]dodeca-2(7),3,5-trien-4-ylamino]-pyrimidin-4-ylamino}-3-fluoro-N-methyl-benzamide] | < 100 | < 100 |  |  | 
11 | COc1ccc(Nc2nc(Nc3cc4c(cc3OC)CCN(CC(=O)N(C)C)CC4)ncc2Cl)c(OC)n1 [Example 1200, 2-{7-[5-Chloro-4-(2,6-dimethoxy-pyridin-3-ylamino)-pyrimidin-2-ylamino]-8-methoxy-1,2,4,5-tetrahydro-benzo[d]azepin-3-yl}-N,N-dimethyl-acetamide] |  |  |  |  | IC50 [1, 3]: 1000 to 10000 nM; IC50 [2, 4]: < 100 nM
12 | COc1cc2c(cc1Nc1ncc(Cl)c(Nc3ccc(N(C)C)cc3OC)n1)CCN(CC(=O)N1CCN(C)CC1)CC2 [Example 1540, 2-{7-[5-Chloro-4-(4-dimethylamino-2-methoxy-phenylamino)-pyrimidin-2-ylamino]-8-methoxy-1,2,4,5-tetrahydro-3-benzazepin-3-yl}-1-(4-methyl-piperazin-1-yl)-ethanone] |  |  |  |  | IC50 [1, 7]: > 10000 nM; IC50 [2, 8]: < 100 nM
13 | CNC(=O)c1cccc(Cl)c1Nc1nc(Nc2ccc3c(c2)CCC(N2CCC(N4CCN(C)CC4)CC2)CC3)ncc1Cl (stereo not shown) [Example 1488, 3-Chloro-2-(5-chloro-2-{7-[4-(4-methyl-piperazin-1-yl)-piperidin-1-yl]-6,7,8,9-tetrahydro-5H-benzocyclohepten-2-ylamino}-pyrimidin-4-ylamino)-N-methyl-benzamide] |  |  |  |  | IC50 [1, 7]: < 100 nM; IC50 [2, 8]: 100 to 1000 nM
14 | CNS(=O)(=O)c1ccccc1Nc1nc(Nc2ccc3c(c2)CCCC(=O)N3)ncc1Cl [Example 5, 2-[5-Chloro-2-(2-oxo-2,3,4,5-tetrahydro-1H-benzo[b]azepin-7-ylamino)-pyrimidin-4-ylamino]-N-methyl-benzenesulfonamide] | < 100 | < 100 |  |  | 
15 | COc1cc2c(cc1Nc1ncc(Cl)c(N[C@@H]3CCCC[C@H]3NS(C)(=O)=O)n1)CCN(C(=O)C(F)(F)F)CC2 [Example 247, N-((1R,2R)-2-{5-Chloro-2-[8-methoxy-3-(2,2,2-trifluoro-acetyl)-2,3,4,5-tetrahydro-1H-benzo[d]azepin-7-ylamino]-pyrimidin-4-ylamino}-cyclohexyl)-methanesulfonamide] | > 10000 | < 100 |  |  | 

More lines, main results first:

Row | IC50 [1, 5] [nM] | IC50 [2, 6] [nM] | IC50 [1, 9] [nM] | IC50 [2, 10] [nM] | Compound | further results
16 | < 100 | < 100 |  |  | CNC(=O)c1ccccc1Nc1nc(Nc2ccc3c(c2)CCC(N2CCOCC2)CC3)ncc1Cl (stereo not shown) [Example 178, 2-[5-Chloro-2-(7-morpholin-4-yl-6,7,8,9-tetrahydro-5H-benzocyclohepten-2-ylamino)-pyrimidin-4-ylamino]-N-methyl-benzamide] | 
17 |  |  | > 10000 | 100 to 1000 | COc1c(Nc2ncc(Cl)c(Nc3ccccc3C(=O)OC(C)C)n2)ccc2c1CCCC(N1CCOCC1)C2 (stereo not shown) [Example 948, 2-[5-Chloro-2-(1-methoxy-6-morpholin-4-yl-6,7,8,9-tetrahydro-5H-benzocyclohepten-2-ylamino)-pyrimidin-4-ylamino]-benzoic acid isopropyl ester] | 
18 |  |  | > 10000 | < 100 | COc1cc2c(cc1Nc1ncc(Cl)c(Nc3ccccc3S(=O)(=O)N3CC[C@H](N(C)C)C3)n1)CCN(CC(=O)N(C)C)CC2 [Example 846, 2-(7-{5-Chloro-4-[2-((S)-3-dimethylamino-pyrrolidine-1-sulfonyl)-phenylamino]-pyrimidin-2-ylamino}-8-methoxy-1,2,4,5-tetrahydro-benzo[d]azepin-3-yl)-N,N-dimethyl-acetamide] | 
19 |  |  | > 10000 | < 100 | COCCNC1CCCc2c(ccc(Nc3ncc(Cl)c(N[C@@H]4CCCC[C@H]4NS(C)(=O)=O)n3)c2OC)C1 (stereo partly drawn) [Example 958, N-((1R,2R)-2-{5-Chloro-2-[1-methoxy-6-(2-methoxy-ethylamino)-6,7,8,9-tetrahydro-5H-benzocyclohepten-2-ylamino]-pyrimidin-4-ylamino}-cyclohexyl)-methanesulfonamide] | 
20 |  |  | 100 to 1000 | < 100 | COCCN1CCc2ccc(Nc3ncc(Cl)c(Nc4ccc(OC)c5c4C(=O)N(C)C5)n3)cc2CC1 [Example 936, 7-{5-Chloro-2-[3-(2-methoxy-ethyl)-2,3,4,5-tetrahydro-1H-3-benzazepin-7-ylamino]-pyrimidin-4-ylamino}-4-methoxy-2-methyl-2,3-dihydro-isoindol-1-one] | 
21 |  |  | > 10000 | < 100 | COc1cc(N2CCOCC2)ccc1Nc1nc(Nc2ccc3c(c2)CCC(NCC(F)F)CC3)ncc1Cl (stereo not shown) [Example 659, 5-Chloro-N*2*-[7-(2,2-difluoro-ethylamino)-6,7,8,9-tetrahydro-5H-benzocyclohepten-2-yl]-N*4*-(2-methoxy-4-morpholin-4-yl-phenyl)-pyrimidine-2,4-diamine] | 
22 |  |  | 100 to 1000 | < 100 | CCN1CCc2ccc(Nc3ncc(C(F)(F)F)c(Nc4ccc(N5CCOCC5)cc4OC)n3)cc2CC1 [Example 924, N(2)-(3-Ethyl-2,3,4,5-tetrahydro-1H-benzo[d]azepin-7-yl)-N(4)-(2-methoxy-4-morpholin-4-yl-phenyl)-5-trifluoromethylpyrimidine-2,4-diamine] | 
23 | 100 to 1000 | < 100 |  |  | CN1CCCCc2cc(Nc3ncc(Cl)c(Nc4ccccc4NS(C)(=O)=O)n3)ccc21 [Example 106, N-{2-[5-Chloro-2-(1-methyl-2,3,4,5-tetrahydro-1H-benzo[b]azepin-7-ylamino)-pyrimidin-4-ylamino]-phenyl}-methanesulfonamide] | 
